Measured values from the OligoGym collection.
HELM strings list units from the 5' end as sugar, base in round brackets, then linkage (d deoxyribose, r ribose, m 2'-O-methyl, p phosphodiester). Strings are as the collection lists them; they lack the last nucleoside at the 3' end of the tested compound. [moe] = 2'-O-(2-methoxyethyl) (MOE); [sp] = phosphorothioate linkage; [m5C] = 5-methylcytosine

Molecular target: GFAP
Assay: mouse, dose not given
Conditions: ASO

Row | Substance | 3 h FOB score [score 0-7]
1 | RNA1{[moe](T)[sp].[moe](T)p.[moe](T)p.[moe](G)p.d(G)[sp].d([m5C])[sp].d(A)[sp].d(G)[sp].d(T)[sp].d(A)[sp].d(T)[sp].d(T)[sp].d(A)[sp].d([m5C])[sp].[moe]([m5C])p.[moe](T)p.[moe]([m5C])p.[moe](T)[sp].[moe](A)}$$$$ (last 3' nucleoside missing) | 1
2 | RNA1{[moe](T)[sp].[moe](G)p.[moe](T)p.[moe]([m5C])p.[moe](T)[sp].d(T)[sp].d(T)[sp].d(A)[sp].d(T)[sp].d(T)[sp].d(T)[sp].d(T)[sp].d(T)[sp].[moe]([m5C])p.[moe]([m5C])p.[moe](T)[sp].[moe]([m5C])}$$$$ (last 3' nucleoside missing) | 1
3 | RNA1{[moe](A)[sp].[moe](G)p.[moe](T)p.[moe](G)p.[moe](A)[sp].d([m5C])[sp].d([m5C])[sp].d(T)[sp].d(G)[sp].d(T)[sp].d(G)[sp].d(A)[sp].d([m5C])[sp].d(T)[sp].d(A)[sp].[moe](T)p.[moe]([m5C])p.[moe](T)[sp].[moe](A)}$$$$ (last 3' nucleoside missing) | 6
4 | RNA1{[moe](T)[sp].[moe](T)p.[moe](T)p.[moe](G)p.d(T)[sp].d([m5C])[sp].d(T)[sp].d(T)[sp].d(T)[sp].d(A)[sp].d(T)[sp].d(T)[sp].d(T)[sp].d(T)[sp].[moe](T)p.[moe]([m5C])p.[moe]([m5C])p.[moe](T)[sp].[moe]([m5C])}$$$$ (last 3' nucleoside missing) | 1
5 | RNA1{[moe]([m5C])[sp].[moe]([m5C])p.[moe](A)p.[moe](T)p.[moe](T)[sp].d(T)[sp].d(A)[sp].d(T)[sp].d([m5C])[sp].d(T)[sp].d(G)[sp].d(T)[sp].d(G)[sp].[moe]([m5C])p.[moe](T)p.[moe](T)[sp].[moe](T)}$$$$ (last 3' nucleoside missing) | 4
6 | RNA1{[moe](G)[sp].[moe](A)p.[moe](G)p.[moe](T)p.[moe](T)[sp].d(T)[sp].d([m5C])[sp].d(T)[sp].d(T)[sp].d(G)[sp].d(T)[sp].d(T)[sp].d(A)[sp].d(G)[sp].d(T)[sp].[moe](T)p.[moe](G)p.[moe](G)[sp].[moe](A)}$$$$ (last 3' nucleoside missing) | 7
7 | RNA1{[moe](G)[sp].[moe](A)p.[moe](G)p.[moe](A)p.[moe](T)[sp].d(A)[sp].d(T)[sp].d([m5C])[sp].d(T)[sp].d(T)[sp].d(G)[sp].d(T)[sp].d(G)[sp].d(A)[sp].d([m5C])[sp].[moe]([m5C])p.[moe](T)p.[moe](T)[sp].[moe](G)}$$$$ (last 3' nucleoside missing) | 4
8 | RNA1{[moe](G)[sp].[moe](T)p.[moe]([m5C])p.[moe](A)p.[moe]([m5C])p.d(A)[sp].d(T)[sp].d(T)[sp].d([m5C])[sp].d(A)[sp].d([m5C])[sp].d(T)[sp].d(A)[sp].d(A)[sp].d(T)[sp].[moe](A)p.[moe](T)p.[moe](T)[sp].[moe](T)}$$$$ (last 3' nucleoside missing) | 0
9 | RNA1{[moe](G)[sp].[moe](G)p.[moe]([m5C])p.[moe](A)p.[moe]([m5C])[sp].d(A)[sp].d(G)[sp].d(T)[sp].d(T)[sp].d([m5C])[sp].d([m5C])[sp].d([m5C])[sp].d(A)[sp].d(G)[sp].d(A)[sp].[moe](T)p.[moe](A)p.[moe]([m5C])[sp].[moe](T)}$$$$ (last 3' nucleoside missing) | 5
10 | RNA1{[moe]([m5C])[sp].[moe](T)p.[moe]([m5C])p.[moe](T)p.[moe](G)p.d([m5C])[sp].d([m5C])[sp].d(A)[sp].d(T)[sp].d(T)[sp].d(T)[sp].d(A)[sp].d(T)[sp].d([m5C])[sp].d(T)[sp].[moe](G)p.[moe](T)p.[moe](G)[sp].[moe]([m5C])}$$$$ (last 3' nucleoside missing) | 0
11 | RNA1{[moe](T)[sp].[moe]([m5C])p.[moe](A)p.[moe]([m5C])p.[moe](A)p.d(T)[sp].d(T)[sp].d([m5C])[sp].d(A)[sp].d([m5C])[sp].d(T)[sp].d(A)[sp].d(A)[sp].d(T)[sp].d(A)[sp].[moe](T)p.[moe](T)p.[moe](T)[sp].[moe](A)}$$$$ (last 3' nucleoside missing) | 0
12 | RNA1{[moe](A)[sp].[moe]([m5C])p.[moe](G)p.[moe](T)p.[moe]([m5C])p.d(A)[sp].d([m5C])[sp].d(A)[sp].d(T)[sp].d(T)[sp].d([m5C])[sp].d(A)[sp].d([m5C])[sp].d(T)[sp].d(A)[sp].[moe](A)p.[moe](T)p.[moe](A)[sp].[moe](T)}$$$$ (last 3' nucleoside missing) | 0
13 | RNA1{[moe]([m5C])[sp].[moe](A)p.[moe]([m5C])p.[moe](G)p.[moe](T)p.[moe]([m5C])p.d(A)[sp].d([m5C])[sp].d(A)[sp].d(T)[sp].d(T)[sp].d([m5C])[sp].d(A)[sp].d([m5C])[sp].d(T)[sp].d(A)[sp].[moe](A)p.[moe](T)[sp].[moe](A)}$$$$ (last 3' nucleoside missing) | 0
14 | RNA1{[moe](A)[sp].[moe](T)p.[moe](G)p.[moe](G)p.[moe](G)[sp].d(T)[sp].d(G)[sp].d(A)[sp].d(G)[sp].d(G)[sp].d(T)[sp].d(G)[sp].d(A)[sp].d(G)[sp].d(G)[sp].[moe](A)p.[moe](G)p.[moe](T)[sp].[moe]([m5C])}$$$$ (last 3' nucleoside missing) | 5
15 | RNA1{[moe]([m5C])[sp].[moe]([m5C])p.[moe]([m5C])p.[moe]([m5C])p.[moe](T)[sp].d(T)[sp].d(T)[sp].d([m5C])[sp].d(T)[sp].d([m5C])[sp].d(T)[sp].d([m5C])[sp].d([m5C])[sp].d(T)[sp].d(G)[sp].[moe](T)p.[moe](T)p.[moe](T)[sp].[moe]([m5C])}$$$$ (last 3' nucleoside missing) | 2
16 | RNA1{[moe](A)[sp].[moe](G)p.[moe](T)p.[moe]([m5C])p.[moe](A)[sp].d(G)[sp].d([m5C])[sp].d([m5C])[sp].d(T)[sp].d(G)[sp].d(G)[sp].d(T)[sp].d(T)[sp].[moe](A)p.[moe](G)p.[moe]([m5C])[sp].[moe]([m5C])}$$$$ (last 3' nucleoside missing) | 2
17 | RNA1{[moe](A)[sp].[moe](T)p.[moe](T)p.[moe](T)p.d(G)[sp].d(G)[sp].d([m5C])[sp].d(A)[sp].d(G)[sp].d(T)[sp].d(A)[sp].d(T)[sp].d(T)[sp].d(A)[sp].[moe]([m5C])p.[moe]([m5C])p.[moe](T)p.[moe]([m5C])[sp].[moe](T)}$$$$ (last 3' nucleoside missing) | 3
18 | RNA1{[moe]([m5C])[sp].[moe](G)p.[moe](T)p.[moe](G)p.[moe](T)[sp].d([m5C])[sp].d(A)[sp].d(G)[sp].d([m5C])[sp].d([m5C])[sp].d([m5C])[sp].d(T)[sp].d(G)[sp].d(A)[sp].d(G)[sp].[moe]([m5C])p.[moe](A)p.[moe]([m5C])[sp].[moe]([m5C])}$$$$ (last 3' nucleoside missing) | 2
19 | RNA1{[moe]([m5C])[sp].[moe](T)p.[moe](G)p.[moe]([m5C])p.[moe](T)[sp].d([m5C])[sp].d(T)[sp].d(T)[sp].d(T)[sp].d([m5C])[sp].d([m5C])[sp].d([m5C])[sp].d(T)[sp].d([m5C])[sp].d(A)[sp].[moe]([m5C])p.[moe](T)p.[moe](T)[sp].[moe](T)}$$$$ (last 3' nucleoside missing) | 0
20 | RNA1{[moe](G)[sp].[moe]([m5C])p.[moe](T)p.[moe](T)p.[moe](T)[sp].d(T)[sp].d(G)[sp].d(A)[sp].d(G)[sp].d(A)[sp].d(T)[sp].d(A)[sp].d(T)[sp].d([m5C])[sp].d(T)[sp].[moe](T)p.[moe](G)p.[moe](T)[sp].[moe](G)}$$$$ (last 3' nucleoside missing) | 2
21 | RNA1{[moe](G)[sp].[moe](T)p.[moe](G)p.[moe]([m5C])p.[moe](T)[sp].d(T)[sp].d(T)[sp].d(T)[sp].d([m5C])[sp].d(T)[sp].d(G)[sp].d([m5C])[sp].d([m5C])[sp].d(T)[sp].d([m5C])[sp].[moe]([m5C])p.[moe](A)p.[moe](G)[sp].[moe](G)}$$$$ (last 3' nucleoside missing) | 2
22 | RNA1{[moe](T)[sp].[moe](T)p.[moe](T)p.[moe](A)p.d(T)[sp].d(T)[sp].d(T)[sp].d(T)[sp].d(T)[sp].d([m5C])[sp].d([m5C])[sp].d(T)[sp].d([m5C])[sp].d(A)[sp].[moe](G)p.[moe]([m5C])p.[moe](G)p.[moe](A)[sp].[moe]([m5C])}$$$$ (last 3' nucleoside missing) | 0
23 | RNA1{[moe](G)[sp].[moe](G)p.[moe](A)p.[moe](G)p.[moe](G)[sp].d(G)[sp].d(T)[sp].d(G)[sp].d(A)[sp].d([m5C])[sp].d([m5C])[sp].d([m5C])[sp].d(A)[sp].d(A)[sp].d(G)[sp].[moe](T)p.[moe]([m5C])p.[moe]([m5C])[sp].[moe](T)}$$$$ (last 3' nucleoside missing) | 4
24 | RNA1{[moe](G)[sp].[moe](G)p.[moe]([m5C])p.[moe](T)p.[moe](T)[sp].d(T)[sp].d(T)[sp].d(G)[sp].d(A)[sp].d(G)[sp].d(A)[sp].d(T)[sp].d(A)[sp].d(T)[sp].d([m5C])[sp].[moe](T)p.[moe](T)p.[moe](G)[sp].[moe](T)}$$$$ (last 3' nucleoside missing) | 5
25 | RNA1{[moe](A)[sp].[moe]([m5C])p.[moe](T)p.[moe](A)p.d(G)[sp].d(T)[sp].d([m5C])[sp].d(A)[sp].d(G)[sp].d([m5C])[sp].d([m5C])[sp].d(T)[sp].d(G)[sp].d(G)[sp].[moe](T)p.[moe](T)p.[moe](A)p.[moe](G)[sp].[moe]([m5C])}$$$$ (last 3' nucleoside missing) | 2
26 | RNA1{[moe](A)[sp].[moe](G)p.[moe]([m5C])p.[moe](A)p.[moe](T)[sp].d(A)[sp].d(G)[sp].d(G)[sp].d(G)[sp].d(A)[sp].d(T)[sp].d(A)[sp].d(T)[sp].d([m5C])[sp].d([m5C])[sp].[moe]([m5C])p.[moe](A)p.[moe]([m5C])[sp].[moe]([m5C])}$$$$ (last 3' nucleoside missing) | 2
